What was measured:
[1] = Phase I study (NCT03386526): safety and tolerability
Experimental: The Phase I dose escalation study included two parts.
Pembrolizumab was administered 200 mg IV on day 1 of a 21-day-cycle, until disease progression or untolerated toxicity.
The inclusion criteria for the Phase I study are: Age≥18 years; ECOG PS: 0-1;
Adequate hematologic, renal and liver functions; Advanced or metastatic solid tumor patients must be refractory to or intolerant of existing therapy(ies) known to provide clinical benefit for their condition.

[2] = system: advanced or metastatic solid tumor; assay: Phase I study: anti-tumor activity in all tumor types; type: in vivo, human
[3] = Phase I study: APG-1387 pharmacokinetics in plasma (LC-MS/MS); type: in vivo, human
Experimental: APG-1387 was IV administered for 30 minutes once weekly in a 21-day-cycle.

[4] = over the range of 20 to 45 mg, preliminary PK data

Compound: CN[C@@H](C)C(=O)N[C@H]1CN(S(=O)(=O)c2cccc(S(=O)(=O)N3CC[C@H]4CC[C@@H](C(=O)NC(c5ccccc5)c5ccccc5)N4C(=O)[C@@H](NC(=O)[C@H](C)NC)C3)c2)CC[C@H]2CC[C@@H](C(=O)NC(c3ccccc3)c3ccccc3)N2C1=O [APG-1387]
- TRAEs (all Grades): Peripheral sensory neuropathy, patients ([1]; APG-1387 45 mg): 1
- TRAEs (all Grades): Phlebitis, patients ([1]; APG-1387 45 mg): 0
- TRAEs (all Grades): Pneumonitis, patients ([1]; APG-1387 45 mg): 0
- TRAEs (all Grades): Pruritus, patients ([1]; APG-1387 45 mg): 0
- TRAEs (all Grades): Rash maculo-papular, patients ([1]; APG-1387 45 mg): 0
- TRAEs (all Grades): Tumor pain, patients ([1]; APG-1387 45 mg): 0
- # of pts discontinued treatment: Adverse Event ([1]; APG-1387 60 mg): 2
- # of pts discontinued treatment: Clinical progression ([1]; APG-1387 60 mg): 1
- # of pts discontinued treatment: Disease progression ([1]; APG-1387 60 mg): 1
- # of pts discontinued treatment: Lack of efficacy ([1]; APG-1387 60 mg): 0
- TRAEs (all Grades): Aspartate aminotransferase increased, patients ([1]; APG-1387 60 mg): 0
- TRAEs (all Grades): Bell's palsy, % of patients ([1]; APG-1387 60 mg): (20.0%)
- TRAEs (all Grades): Bell's palsy, patients ([1]; APG-1387 60 mg): 1
- TRAEs (all Grades): Blood bilirubin increased, % of patients ([1]; APG-1387 60 mg): (20.0%)
- TRAEs (all Grades): Blood bilirubin increased, patients ([1]; APG-1387 60 mg): 1
- TRAEs (all Grades): Decreased appetite, patients ([1]; APG-1387 60 mg): 0
- TRAEs (all Grades): Dehydration, patients ([1]; APG-1387 60 mg): 0
- TRAEs (all Grades): Diarrhoea, patients ([1]; APG-1387 60 mg): 0
- TRAEs (all Grades): Dyspepsia, patients ([1]; APG-1387 60 mg): 0
- TRAEs (all Grades): Eructation, patients ([1]; APG-1387 60 mg): 0
- TRAEs (all Grades): Fatigue, patients ([1]; APG-1387 60 mg): 0
- TRAEs (all Grades): Headache, % of patients ([1]; APG-1387 60 mg): (20.0%)
- TRAEs (all Grades): Headache, patients ([1]; APG-1387 60 mg): 1
- TRAEs (all Grades): Lipase increased, % of patients ([1]; APG-1387 60 mg): (20.0%)
- TRAEs (all Grades): Lipase increased, patients ([1]; APG-1387 60 mg): 1
- TRAEs (all Grades): Myalgia, patients ([1]; APG-1387 60 mg): 0
- TRAEs (all Grades): Nausea, patients ([1]; APG-1387 60 mg): 0
- TRAEs (all Grades): Peripheral sensory neuropathy, patients ([1]; APG-1387 60 mg): 0
- TRAEs (all Grades): Phlebitis, patients ([1]; APG-1387 60 mg): 0
- TRAEs (all Grades): Pneumonitis, % of patients ([1]; APG-1387 60 mg): (20.0%)
- TRAEs (all Grades): Pneumonitis, patients ([1]; APG-1387 60 mg): 1
- TRAEs (all Grades): Pruritus, % of patients ([1]; APG-1387 60 mg): (20.0%)
- TRAEs (all Grades): Pruritus, patients ([1]; APG-1387 60 mg): 1
- TRAEs (all Grades): Rash maculo-papular, % of patients ([1]; APG-1387 60 mg): (20.0%)
- TRAEs (all Grades): Rash maculo-papular, patients ([1]; APG-1387 60 mg): 1
- TRAEs (all Grades): Tumor pain, patients ([1]; APG-1387 60 mg): 0
- MTD of APG-1387 monotherapy ([1]; IV once weekly in a 21-day-cycle): 45 mg
- # of pts discontinued treatment: Adverse Event ([1]; Overall): 3
- # of pts discontinued treatment: Clinical progression ([1]; Overall): 2
- # of pts discontinued treatment: Disease progression ([1]; Overall): 14
- # of pts discontinued treatment: Lack of efficacy ([1]; Overall): 2
- TRAEs (all Grades): Aspartate aminotransferase increased, % of patients ([1]; Overall): (4.2%)
- TRAEs (all Grades): Aspartate aminotransferase increased, patients ([1]; Overall): 1
- TRAEs (all Grades): Bell's palsy, % of patients ([1]; Overall): (8.4%)
- TRAEs (all Grades): Bell's palsy, patients ([1]; Overall): 2
- TRAEs (all Grades): Blood bilirubin increased, % of patients ([1]; Overall): (4.2%)
- TRAEs (all Grades): Blood bilirubin increased, patients ([1]; Overall): 1
- TRAEs (all Grades): Decreased appetite, % of patients ([1]; Overall): (8.3%)
- TRAEs (all Grades): Decreased appetite, patients ([1]; Overall): 2
- TRAEs (all Grades): Dehydration, % of patients ([1]; Overall): (4.2%)
- TRAEs (all Grades): Dehydration, patients ([1]; Overall): 1
- TRAEs (all Grades): Diarrhoea, % of patients ([1]; Overall): (4.2%)
- TRAEs (all Grades): Diarrhoea, patients ([1]; Overall): 1
- TRAEs (all Grades): Dyspepsia, % of patients ([1]; Overall): (4.2%)
- TRAEs (all Grades): Dyspepsia, patients ([1]; Overall): 1
- TRAEs (all Grades): Eructation, patients ([1]; Overall): 0
- TRAEs (all Grades): Fatigue, % of patients ([1]; Overall): (12.5%)
- TRAEs (all Grades): Fatigue, patients ([1]; Overall): 3
- TRAEs (all Grades): Headache, % of patients ([1]; Overall): (8.3%)
- TRAEs (all Grades): Headache, patients ([1]; Overall): 2
- TRAEs (all Grades): Lipase increased, % of patients ([1]; Overall): (4.2%)
- TRAEs (all Grades): Lipase increased, patients ([1]; Overall): 1
- TRAEs (all Grades): Myalgia, % of patients ([1]; Overall): (4.2%)
- TRAEs (all Grades): Myalgia, patients ([1]; Overall): 1
- TRAEs (all Grades): Nausea, % of patients ([1]; Overall): (8.3%)
- TRAEs (all Grades): Nausea, patients ([1]; Overall): 2
- TRAEs (all Grades): Peripheral sensory neuropathy, % of patients ([1]; Overall): (4.2%)
- TRAEs (all Grades): Peripheral sensory neuropathy, patients ([1]; Overall): 1
- TRAEs (all Grades): Phlebitis, % of patients ([1]; Overall): (4.2%)
- TRAEs (all Grades): Phlebitis, patients ([1]; Overall): 1
- TRAEs (all Grades): Pneumonitis, % of patients ([1]; Overall): (4.2%)
- TRAEs (all Grades): Pneumonitis, patients ([1]; Overall): 1
- TRAEs (all Grades): Pruritus, % of patients ([1]; Overall): (8.3%)
- TRAEs (all Grades): Pruritus, patients ([1]; Overall): 2
- TRAEs (all Grades): Rash maculo-papular, % of patients ([1]; Overall): (8.3%)
- TRAEs (all Grades): Rash maculo-papular, patients ([1]; Overall): 2
- TRAEs (all Grades): Tumor pain, patients ([1]; Overall): 0
- Dose Limiting Toxicity (DLTs) observed ([1]; at 60 mg, lipase increase and facial nerve disorder): Two
- Most common treatment-related adverse events (TRAEs) (>10%) ([1]; patients): fatigue
- tolerability ([1]; patients, IV once weekly in a 21-day-cycle): well tolerated
- DCR (disease control rate, SD above) [2]: 6/24
- ORR (objective response rate, CR + PR) [2]: 0
- Best response: CR ([2]; patients): 0
- Best response: PD ([2]; patients): 15
- Best response: PR ([2]; patients): 0
- Best response: SD ([2]; patients): 6
- increase in AUC [3, 4]: approximately dose proportional
- increase in Cmax [3, 4]: approximately dose proportional
- accumulation ([3]; weekly dosing regimen): no significant accumulation

From US12186304B2, “Method for treating cancer by combination of IAP inhibitor and modulator of immune checkpoint molecule” (ASCENTAGE PHARMA (SUZHOU) CO., LTD., priority 2018, dated 2025)
